# Laboratory results: patent US7973061B2, “Anaplastic lymphoma kinase modulators and methods of use” (Exelixis, Inc., priority 2004, dated 2011)
# Target: T1, ALK (baculovirus expressed human ALK kinase domain F1098-K1410) (Homo sapiens, UniProt Q9UM73)
# T1 construct: human ALK kinase domain F1098-K1410; made in house
# Test: biochemical
# Conditions: 1 μM ATP, 4 μM poly-AEKY, 12 nM ALK, 2 hours at ambient temperature; read-out: ALK IC50
# Summary of the method: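 Inhibitors were tested at 10 concentrations, and IC50 was derived from a sigmoidal fit (Min, Max, Hill slope). Kinase activity was measured as percent ATP left after a 2 h reaction at room temperature, detected by luciferase-luciferin chemiluminescence. The ATP level was set close to KM for the ALK kinase domain F1098-K1410.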
# T1 sequence (Q9UM73 1098-1410): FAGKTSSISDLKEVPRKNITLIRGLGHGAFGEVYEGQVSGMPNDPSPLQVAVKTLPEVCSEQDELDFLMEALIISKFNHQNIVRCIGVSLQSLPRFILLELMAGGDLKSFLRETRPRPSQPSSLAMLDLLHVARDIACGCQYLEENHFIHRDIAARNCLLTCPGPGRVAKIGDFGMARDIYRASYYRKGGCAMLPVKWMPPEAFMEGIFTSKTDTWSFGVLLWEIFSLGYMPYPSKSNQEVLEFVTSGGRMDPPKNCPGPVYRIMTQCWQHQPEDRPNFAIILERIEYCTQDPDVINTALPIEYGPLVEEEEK
row,Structure (SMILES),IC50
1,"CC(C)(C)OC(=O)NC1CCN(C(=O)c2csc(CNC(=O)COc3ccc(OC(F)(F)F)cc3)n2)CC1 [Entry 254, 1,1-dimethylethyl(1-{[2-({[({4-[(trifluoromethyl)oxy]phenyl}oxy)acetyl]amino}methyl)-1,3-thiazol-4-yl]carbonyl}piperidin-4-yl)carbamate]",500 to 2000 nM
2,"O=C(COc1cccc(Cl)c1)NCc1nc(C(=O)NCCc2cccc(Cl)c2)cs1 [Entry 161, N-[2-(3-chlorophenyl)ethyl]-2-[({[(3-chlorophenyl)oxy]acetyl}amino)methyl]-1,3-thiazole-4-carboxamide]",50 to 500 nM
3,"CC(C)CNC(=O)c1csc(CNC(=O)COc2ccc(OC(F)(F)F)cc2)n1 [Entry 94, N-(2-methylpropyl)-2-({[({4-[(trifluoromethyl)oxy]phenyl}oxy)acetyl]amino}methyl)-1,3-thiazole-4-carboxamide]",50 to 500 nM
4,"O=C(COc1ccc(OC(F)(F)F)cc1)NCc1nc(C(=O)NCCSCc2c(Cl)cccc2Cl)cs1 [Entry 93, N-(2-{[(2,6-dichlorophenyl)methyl]thio}ethyl)-2-({[({4-[(trifluoromethyl)oxy]phenyl}oxy)acetyl]amino}methyl)-1,3-thiazole-4-carboxamide]",50 to 500 nM
5,"O=C(COc1ccc(OC(F)(F)F)cc1)NCc1nc(C(=O)NCCc2ccc(Br)cc2)co1 [Entry 231, N-[2-(4-bromophenyl)ethyl]-2-({[({4-[(trifluoromethyl)oxy]phenyl}oxy)acetyl]amino}methyl)-1,3-oxazole-4-carboxamide]",500 to 2000 nM
6,"O=C(COc1ccc(OC(F)(F)F)cc1)NCc1nc(C(=O)NCCc2cccc(C(F)(F)F)c2)cs1 [Entry 52, 2-({[({4-[(trifluoromethyl)oxy]phenyl}oxy)acetyl]amino}methyl)-N-{2-[3-(trifluoromethyl)phenyl]ethyl}-1,3-thiazole-4-carboxamide]",50 to 500 nM
7,"CCc1ccc(OCC(=O)NCc2nc(C(=O)NCCc3cccc(Cl)c3)cs2)cc1 [Entry 111, N-[2-(3-chlorophenyl)ethyl]-2-[({[(4-ethylphenyl)oxy]acetyl}amino)methyl]-1,3-thiazole-4-carboxamide]",50 to 500 nM
8,"O=C(NCc1nc(C(=O)NCCc2cccc(Cl)c2)cs1)N[C@@H]1C[C@H]1c1ccccc1 [Entry 217, N-[2-(3-chlorophenyl)ethyl]-2-{[({[(1R,2S)-2-phenylcyclopropyl]amino}carbonyl)amino]methyl}-1,3-thiazole-4-carboxamide]",50 to 500 nM
9,"C[C@H](NC(=O)c1csc(CNC(=O)COc2ccc(OC(F)(F)F)cc2)n1)C(C)(C)C [Entry 102, 2-({[({4-[(trifluoromethyl)oxy]phenyl}oxy)acetyl]amino}methyl)-N-[(1S)-1,2,2-trimethylpropyl]-1,3-thiazole-4-carboxamide]",50 to 500 nM
10,"O=C(Cc1ccc2ccccc2c1)NCc1nc(C(=O)NCCc2ccccc2F)cs1 [Entry 169, N-[2-(2-fluorophenyl)ethyl]-2-{[(naphthalen-2-ylacetyl)amino]methyl}-1,3-thiazole-4-carboxamide]",50 to 500 nM
11,"CCOc1ccccc1CNC(=O)c1coc(CNC(=O)COc2ccc(OC(F)(F)F)cc2)n1 [Entry 235, N-{[2-(ethyloxy)phenyl]methyl}-2-({[({4-[(trifluoromethyl)oxy]phenyl}oxy)acetyl]amino}methyl)-1,3-oxazole-4-carboxamide]",500 to 2000 nM
12,"O=C(COc1ccc(OC(F)(F)F)cc1)NCc1nc(C(=O)NCCc2cccc(Cl)c2)cs1 [Entry 2, N-[2-(3-chlorophenyl)ethyl]-2-({[({4-[(trifluoromethyl)oxy]phenyl}oxy)acetyl]amino}methyl)-1,3-thiazole-4-carboxamide]",< 50 nM
13,"O=C(COc1ccc(OC(F)(F)F)cc1)NCc1nc(C(=O)O)co1 [Entry 308, 2-({[({4-[(trifluoromethyl)oxy]phenyl}oxy)acetyl]amino}methyl)-1,3-oxazole-4-carboxylic acid]",> 2000 nM
14,"CSCCCNC(=O)c1csc(CNC(=O)COc2ccc(OC(F)(F)F)cc2)n1 [Entry 149, N-[3-(methylthio)propyl]-2-({[({4-[(trifluoromethyl)oxy]phenyl}oxy)acetyl]amino}methyl)-1,3-thiazole-4-carboxamide]",50 to 500 nM
15,"O=C(COc1ccc(OC(F)(F)F)cc1)NC(Cc1ccccc1)c1nc(C(=O)NCCc2cccc(Cl)c2)cs1 (stereo not drawn) [Entry 131, N-[2-(3-chlorophenyl)ethyl]-2-(2-phenyl-1-{[({4-[(trifluoromethyl)oxy]phenyl}oxy)acetyl]amino}ethyl)-1,3-thiazole-4-carboxamide]",50 to 500 nM
16,"CC1CCCN(C(=O)c2csc(CNC(=O)COc3ccc(OC(F)(F)F)cc3)n2)C1 (stereo not drawn) [Entry 289, N-({4-[(3-methylpiperidin-1-yl)carbonyl]-1,3-thiazol-2-yl}methyl)-2-({4-[(trifluoromethyl)oxy]phenyl}oxy)acetamide]",500 to 2000 nM

# Second part, the compound after the results:
row,IC50,Structure (SMILES)
1,50 to 500 nM,"NC(=O)C(NC(=O)c1csc(CNC(=O)COc2ccc(OC(F)(F)F)cc2)n1)c1ccccc1 (stereo not drawn) [Entry 54, N-(2-amino-2-oxo-1-phenylethyl)-2-({[({4-[(trifluoromethyl)oxy]phenyl}oxy)acetyl]amino}methyl)-1,3-thiazole-4-carboxamide]"
2,500 to 2000 nM,"COCC(C)NC(=O)c1csc(CNC(=O)COc2ccc(OC(F)(F)F)cc2)n1 (stereo not drawn) [Entry 268, N-[1-methyl-2-(methyloxy)ethyl]-2-({[({4-[(trifluoromethyl)oxy]phenyl}oxy)acetyl]amino}methyl)-1,3-thiazole-4-carboxamide]"
3,50 to 500 nM,"O=C(COc1ccc(OC(F)(F)F)cc1)NCc1nc(C(=O)Nc2ccc(C(=O)O)c(O)c2)cs1 [Entry 142, 2-hydroxy-4-({[2-({[({4-[(trifluoromethyl)oxy]phenyl}oxy)acetyl]amino}methyl)-1,3-thiazol-4-yl]carbonyl}amino)benzoic acid]"
4,500 to 2000 nM,"Cc1ccc(N2CCN(C(=O)c3csc(CNC(=O)COc4ccc(OC(F)(F)F)cc4)n3)CC2C)cc1 (stereo not drawn) [Entry 243, N-[(4-{[3-methyl-4-(4-methylphenyl)piperazin-1-yl]carbonyl}-1,3-thiazol-2-yl)methyl]-2-({4-[(trifluoromethyl)oxy]phenyl}oxy)acetamide]"
5,50 to 500 nM,"CN(CCCNC(=O)c1csc(CNC(=O)COc2ccc(OC(F)(F)F)cc2)n1)c1ccccc1 [Entry 107, N-{3-[methyl(phenyl)amino]propyl}-2-({[({4-[(trifluoromethyl)oxy]phenyl}oxy)acetyl]amino}methyl)-1,3-thiazole-4-carboxamide]"
6,500 to 2000 nM,"O=C(COc1ccc(OC(F)(F)F)cc1)NCc1nc(C(=O)NCCc2c[nH]c3ccccc23)co1 [Entry 251, N-[2-(1H-indol-3-yl)ethyl]-2-({[({4-[(trifluoromethyl)oxy]phenyl}oxy)acetyl]amino}methyl)-1,3-oxazole-4-carboxamide]"
7,500 to 2000 nM,"O=C(COc1ccc(OC(F)(F)F)cc1)NCc1nc(C(=O)NCCCN2CCOCC2)cs1 [Entry 267, N-(3-morpholin-4-ylpropyl)-2-({[({4-[(trifluoromethyl)oxy]phenyl}oxy)acetyl]amino}methyl)-1,3-thiazole-4-carboxamide]"
8,50 to 500 nM,"O=C(COc1ccc(OC(F)(F)F)cc1)NCc1nc(C(=O)NCc2cc(C(F)(F)F)ccc2Cl)cs1 [Entry 97, N-{[2-chloro-5-(trifluoromethyl)phenyl]methyl}-2-({[({4-[(trifluoromethyl)oxy]phenyl}oxy)acetyl]amino}methyl)-1,3-thiazole-4-carboxamide]"
